Results as given in patent US20210122763A1, “OGA INHIBITOR COMPOUNDS” (Janssen Pharmaceutica NV, priority 2018, published 2021).

Target: T1, recombinant human Meningioma Expressed Antigen 5 (MGEA5), also referred to as O-GlcNAcase (OGA) (Homo sapiens, UniProt O60502)
T1 construct: Full length OGA enzyme was purchased at OriGene (cat #TP322411); purchased OriGene TP322411
T1 sequence (O60502 1-916): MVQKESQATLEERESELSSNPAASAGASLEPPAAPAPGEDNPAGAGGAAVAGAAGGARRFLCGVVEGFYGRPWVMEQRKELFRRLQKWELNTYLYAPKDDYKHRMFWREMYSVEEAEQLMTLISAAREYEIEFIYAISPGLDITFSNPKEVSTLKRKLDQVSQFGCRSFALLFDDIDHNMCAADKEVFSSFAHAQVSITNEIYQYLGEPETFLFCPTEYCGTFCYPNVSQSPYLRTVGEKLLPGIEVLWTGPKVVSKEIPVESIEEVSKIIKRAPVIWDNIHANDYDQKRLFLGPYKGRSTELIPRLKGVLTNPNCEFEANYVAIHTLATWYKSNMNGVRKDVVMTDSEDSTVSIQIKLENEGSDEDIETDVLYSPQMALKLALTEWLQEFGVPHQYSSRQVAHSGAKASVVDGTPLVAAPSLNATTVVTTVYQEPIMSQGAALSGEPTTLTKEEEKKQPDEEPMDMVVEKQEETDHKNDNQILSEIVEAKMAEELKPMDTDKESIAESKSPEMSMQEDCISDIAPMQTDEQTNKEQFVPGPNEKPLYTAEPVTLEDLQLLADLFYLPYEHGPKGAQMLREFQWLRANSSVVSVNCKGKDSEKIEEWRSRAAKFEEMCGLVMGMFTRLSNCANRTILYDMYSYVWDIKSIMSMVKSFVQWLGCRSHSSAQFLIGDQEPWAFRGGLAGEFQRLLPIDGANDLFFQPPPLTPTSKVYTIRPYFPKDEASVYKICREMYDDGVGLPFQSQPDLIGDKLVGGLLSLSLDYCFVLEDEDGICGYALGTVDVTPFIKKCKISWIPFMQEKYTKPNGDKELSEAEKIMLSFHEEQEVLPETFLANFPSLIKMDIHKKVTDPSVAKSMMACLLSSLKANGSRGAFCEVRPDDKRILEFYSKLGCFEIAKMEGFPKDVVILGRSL
Test: OGA biochemical assay (inhibition of FM-GlcNAc hydrolysis, fluorescence)
Conditions: for Emax: read-out: Enzymatic Emax (%); for IC50: read-out: Enzymatic hOGA, pIC50 (converted)
Summary of the method: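 Full-length OGA at 2 nM was pre-incubated 60 min at room temperature with compound, then FM-GlcNAc at 100 uM final was added in citrate/phosphate buffer pH 7.2 with 0.005% Tween-20. After 6 h at room temperature, carbonate pH 11.0 stopped the reaction. Fluorescence read at 485/538 nm; IC50 and Hill coefficient from curve fit against no-inhibitor and saturating-standard controls.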

Row | Emax [%] | IC50 [nM] | Structure (SMILES)
1 | 101 | 5.01 | Cc1cc(OC2CCN([C@@H](C)c3nc4nc(C)sc4cc3F)CC2)cc(C)n1 (single isomer, unassigned) [Compound 83]
2 | 97 | 3.16 | Cc1cc(OC2CCN([C@H](C)c3nc4c(cc3F)CCO4)CC2)cc(C)n1 (single isomer, unassigned) [Compound 144]
3 | 98 | 6.31 | Cc1cc(OC2CCN([C@H](C)c3nc4c(cc3F)OCCO4)CC2)cc(C)n1 (single isomer, unassigned) [Compound 148]
4 | 96 | 5.01 | Cc1ncc(OC2CCN(C(C)c3nc4c(cc3F)CCO4)CC2)cn1 (centres unmarked) [Compound 95]
